From ChEMBL document CHEMBL5143618, “Design, synthesis, and antitumor activity evaluation of novel acyl sulfonamide spirodienones” (Bioorg Med Chem, 2022)
The source made the active and inactive calls. The calls are words filed in the database; no cut-off is given here.

What was measured:
MDA-MB-231 [1] = assay: cells; type: functional, cell-based; settings: Homo sapiens, MDA-MB-231, 74 h
Description: Antiproliferative activity against human MDA-MB-231 cells assessed as inhibition of cell growth measured after 74 hrs by SRB assay

A549 [2] = assay: cells; type: functional, cell-based; settings: Homo sapiens, A549, 74 h
Description: Antiproliferative activity against human A549 cells assessed as inhibition of cell growth measured after 74 hrs by SRB assay

[3] = Acute toxicity in Kunming mouse assessed as mortality at 100 mg/kg, ip single dose; type: organism-based; settings: in vivo
HeLa [4] = assay: cells; type: functional, cell-based; settings: Homo sapiens, 74 h
Description: Antiproliferative activity against human HeLa cells assessed as inhibition of cell growth measured after 74 hrs by SRB assay

HepG2 = assay: Antiproliferative activity against human HepG2 cells assessed as inhibition of cell growth measured after 74 hrs by SRB assay; type: functional, cell-based; settings: HepG2, 74 h
MDA-MB-231 [5] = assay: Induction of apoptosis in human MDA-MB-231 cells assessed as necrotic cells at 10 uM incubated for 24 hrs by annexin V-FITC and PI staining based flow cytometry analysis (reference value: 0.68 %); type: functional
MDA-MB-231 [6] = assay: Induction of apoptosis in human MDA-MB-231 cells assessed as late apoptotic cells at 10 uM incubated for 24 hrs by annexin V-FITC and PI staining based flow cytometry analysis (reference value: 1.02 %); type: functional
MDA-MB-231 [7] = assay: Induction of apoptosis in human MDA-MB-231 cells assessed as early apoptotic cells at 10 uM incubated for 24 hrs by annexin V-FITC and PI staining based flow cytometry analysis (reference value: 4.66 %); type: functional
MDA-MB-231 [8] = assay: Induction of apoptosis in human MDA-MB-231 cells assessed as viable cells at 10 uM incubated for 24 hrs by annexin V-FITC and PI staining based flow cytometry analysis (reference value: 93.6 %); type: functional; settings: read-out: Activity
[9] = Acute toxicity in Kunming mouse assessed as mortality at 150 mg/kg, ip single dose; type: organism-based; settings: in vivo, read-out: Activity
[10] = Acute toxicity in Kunming mouse assessed as mortality at 200 mg/kg, ip single dose; type: organism-based; settings: in vivo, read-out: Activity
[11] = Acute toxicity in Kunming mouse assessed as mortality at 250 mg/kg, ip single dose; type: organism-based; settings: in vivo, read-out: Activity
[12] = Acute toxicity in female Kunming mouse assessed as drug tolerance at 100 to 250 mg/kg, ip single dose measured up to 2 weeks; type: organism-based; settings: in vivo, 336 h, dose 100-250 mg/kg
[13] = Acute toxicity in male Kunming mouse assessed as drug tolerance at 100 to 250 mg/kg, ip single dose measured up to 2 weeks; type: organism-based; settings: in vivo, 336 h, dose 100-250 mg/kg
[14] = Acute toxicity in female Kunming mouse assessed as body weight gain at 100 to 250 mg/kg, ip single dose measured up to 2 weeks; type: organism-based; settings: in vivo, 336 h, dose 100-250 mg/kg
[15] = Acute toxicity in male Kunming mouse assessed as body weight gain at 100 to 250 mg/kg, ip single dose measured up to 2 weeks; type: organism-based; settings: in vivo, 336 h, dose 100-250 mg/kg
[16] = Acute toxicity in female Kunming mouse assessed as clinical signs of toxicity in eyes at 100 to 250 mg/kg, ip single dose measured up to 2 weeks; type: organism-based; settings: in vivo, 336 h, dose 100-250 mg/kg
[17] = Acute toxicity in male Kunming mouse assessed as clinical signs of toxicity in eyes at 100 to 250 mg/kg, ip single dose measured up to 2 weeks; type: organism-based; settings: in vivo, 336 h, dose 100-250 mg/kg
[18] = Acute toxicity in female Kunming mouse assessed as clinical signs of toxicity in skin at 100 to 250 mg/kg, ip single dose measured up to 2 weeks; type: organism-based; settings: in vivo, 336 h, dose 100-250 mg/kg
[19] = Acute toxicity in male Kunming mouse assessed as clinical signs of toxicity in skin at 100 to 250 mg/kg, ip single dose measured up to 2 weeks; type: organism-based; settings: in vivo, 336 h, dose 100-250 mg/kg
[20] = Acute toxicity in female Kunming mouse assessed as clinical signs of toxicity in fur at 100 to 250 mg/kg, ip single dose measured up to 2 weeks; type: organism-based; settings: in vivo, 336 h, dose 100-250 mg/kg
[21] = Acute toxicity in male Kunming mouse assessed as clinical signs of toxicity in fur at 100 to 250 mg/kg, ip single dose measured up to 2 weeks; type: organism-based; settings: in vivo, 336 h, dose 100-250 mg/kg
[22] = Acute toxicity in Kunming mouse assessed as pathological changes in heart at 100 to 250 mg/kg, ip single dose by hematoxylin and eosin staining based assay; type: organism-based; settings: in vivo, dose 100-250 mg/kg
[23] = Acute toxicity in Kunming mouse assessed as pathological changes in liver at 100 to 250 mg/kg, ip single dose by hematoxylin and eosin staining based assay; type: organism-based; settings: in vivo, dose 100-250 mg/kg
[24] = Acute toxicity in Kunming mouse assessed as pathological changes in spleen at 100 to 250 mg/kg, ip single dose by hematoxylin and eosin staining based assay; type: organism-based; settings: in vivo, dose 100-250 mg/kg
[25] = Acute toxicity in Kunming mouse assessed as pathological changes in lung at 100 to 250 mg/kg, ip single dose by hematoxylin and eosin staining based assay; type: organism-based; settings: in vivo, dose 100-250 mg/kg
[26] = Acute toxicity in Kunming mouse assessed as pathological changes in kidney at 100 to 250 mg/kg, ip single dose by hematoxylin and eosin staining based assay; type: organism-based; settings: in vivo, dose 100-250 mg/kg
4T1 [27] = assay: Antitumor activity against mouse 4T1 cells inoculated orthotopic mouse assessed as reduction in tumor volume at 10 mg/kg, ip administered every day measured after 14 days (reference value: 623 mm3); type: functional; settings: time 14 day
4T1 [28] = assay: Antitumor activity against mouse 4T1 cells inoculated orthotopic mouse assessed as tumor growth inhibition ratio at 10 mg/kg, ip administered every day measured after 14 days; type: functional; set-up: scale not given: the % may be the effect or the level left; settings: time 14 day
[29] = Toxicity in orthotopic mouse inoculated with mouse 4T1 cells assessed as body weight loss at 10 mg/kg, ip administered every day measured after 14 days; type: organism-based; settings: in vivo, 336 h, time 14 day
[30] = Toxicity in orthotopic mouse inoculated with mouse 4T1 cells assessed as side effects at 10 mg/kg, ip administered every day measured after 14 days; type: organism-based; settings: in vivo, 336 h, time 14 day
[31] = Toxicity in orthotopic mouse inoculated with mouse 4T1 cells assessed as appearance of lesions in heart at 10 mg/kg, ip administered every day measured after 14 days by hematoxylin and eosin staining based assay; type: organism-based; settings: in vivo, 336 h, time 14 day
[32] = Toxicity in orthotopic mouse inoculated with mouse 4T1 cells assessed as appearance of lesions in liver at 10 mg/kg, ip administered every day measured after 14 days by hematoxylin and eosin staining based assay; type: organism-based; settings: in vivo, 336 h, time 14 day
[33] = Toxicity in orthotopic mouse inoculated with mouse 4T1 cells assessed as appearance of lesions in spleen at 10 mg/kg, ip administered every day measured after 14 days by hematoxylin and eosin staining based assay; type: organism-based; settings: in vivo, 336 h, time 14 day
[34] = Toxicity in orthotopic mouse inoculated with mouse 4T1 cells assessed as appearance of lesions in lung at 10 mg/kg, ip administered every day measured after 14 days by hematoxylin and eosin staining based assay; type: organism-based; settings: in vivo, 336 h, time 14 day
[35] = Toxicity in orthotopic mouse inoculated with mouse 4T1 cells assessed as appearance of lesions in kidney at 10 mg/kg, ip administered every day measured after 14 days by hematoxylin and eosin staining based assay; type: organism-based; settings: in vivo, 336 h, time 14 day
4T1 [36] = assay: Antitumor activity against mouse 4T1 cells inoculated orthotopic mouse assessed as apoptotic cells in tumor tissue by TUNEL assay (reference value: 3.13%); type: functional
MDA-MB-231 [37] = assay: Induction of cell cycle arrest in human MDA-MB-231 cells assessed as accumulation of cells in G1 phase at 10 uM incubated for 24 hrs by PI staining based flow cytometry analysis (reference value: 74.44 %); type: functional
MDA-MB-231 [38] = assay: Induction of cell cycle arrest in human MDA-MB-231 cells assessed as accumulation of cells in G2 phase at 10 uM incubated for 24 hrs by PI staining based flow cytometry analysis (reference value: 8.95 %); type: functional
MDA-MB-231 [39] = assay: Induction of cell cycle arrest in human MDA-MB-231 cells assessed as accumulation of cells in S phase at 10 uM incubated for 24 hrs by PI staining based flow cytometry analysis (reference value: 16.61 %); type: functional
MDA-MB-231 [40] = assay: Induction of cell cycle arrest in human MDA-MB-231 cells assessed as accumulation of cells in G2/G1 phase at 10 uM incubated for 24 hrs by PI staining based flow cytometry analysis (reference value: 1.80 %); type: functional
4T1 [41] = assay: Antitumor activity against mouse 4T1 cells inoculated orthotopic mouse assessed as change in gross appearance of tumor at 10 mg/kg, ip administered every day measured after 14 days; type: functional, organism-based; settings: time 14.0 day
4T1 [42] = assay: Antitumor activity against mouse 4T1 cells inoculated orthotopic mouse assessed as decrease in tumor weight at 10 mg/kg, ip administered every day measured after 14 days; type: functional, organism-based; settings: time 14.0 day
[43] = Toxicity in orthotopic mouse inoculated with mouse 4T1 cells assessed as sparse and dull hair at 10 mg/kg, ip administered every day measured after 8 days; type: organism-based; settings: in vivo, 192 h, time 8 day
[44] = Toxicity in orthotopic mouse inoculated with mouse 4T1 cells assessed as hardened skin at 10 mg/kg, ip administered every day measured after 8 days; type: organism-based; settings: in vivo, 192 h, time 8 day
[45] = Toxicity in orthotopic mouse inoculated with mouse 4T1 cells assessed as liver cell swelling at 10 mg/kg, ip administered every day measured after 14 days by hematoxylin and eosin staining based assay; type: organism-based; settings: in vivo, 336 h, time 14 day
MDA-MB-231 [46] = assay: Antiproliferative activity against human MDA-MB-231 cells assessed as inhibition of cell growth; type: functional, cell-based
A549 [47] = assay: Antiproliferative activity against human A549 cells assessed as inhibition of cell growth; type: functional, cell-based
HeLa [48] = assay: Antiproliferative activity against human HeLa cells assessed as inhibition of cell growth; type: functional, cell-based

## Cc1ccc(S(=O)(=O)N2C(=O)COC23C=CC(=O)C=C3)cc1
MDA-MB-231 [1]
  IC50: 70 nM
A549 [2]
  IC50: 110 nM
[3]
  Activity: Non-Toxic
HeLa [4]
  IC50: 180 nM
HepG2
  IC50: > 10000 nM
MDA-MB-231 [5]
  Activity: 0.72%
MDA-MB-231 [6]
  Activity: 3%
MDA-MB-231 [7]
  Activity: 10.9%
MDA-MB-231 [8]
  viability at 10 µM: 85.4%
[9]
  mortality: 30%
[10]
  mortality: 50%
[11]
  mortality: 60%
[12]
  Activity: Non-Toxic
[13]
  Activity: Non-Toxic
[14]
  Activity: Non-Toxic
[15]
  Activity: Non-Toxic
[16]
  Activity: Non-Toxic
[17]
  Activity: Non-Toxic
[18]
  Activity: Non-Toxic
[19]
  Activity: Non-Toxic
[20]
  Activity: Non-Toxic
[21]
  Activity: Non-Toxic
[22]
  Activity: Non-Toxic
[23]
  Activity: Non-Toxic
[24]
  Activity: Non-Toxic
[25]
  Activity: Non-Toxic
[26]
  Activity: Non-Toxic
4T1 [27]
  Activity: 376 mm3
4T1 [28]
  Activity: 39%
[29]
  Activity: Non-Toxic
[30]
  Activity: Non-Toxic
[31]
  Activity: Non-Toxic
[32]
  Activity: Non-Toxic
[33]
  Activity: Non-Toxic
[34]
  Activity: Non-Toxic
[35]
  Activity: Non-Toxic
4T1 [36]
  Activity: 95.64%
MDA-MB-231 [37]
  Activity: 65.65%
MDA-MB-231 [38]
  Activity: 10.29%
MDA-MB-231 [39]
  Activity: 24.06%
MDA-MB-231 [40]
  Activity: 1.8%
4T1 [41]
  Activity: Active
4T1 [42]
  Activity: Active

## COc1cccc2c1C(=O)c1c(O)c3c(c(O)c1C2=O)C[C@@](O)(C(=O)CO)C[C@@H]3O[C@H]1C[C@H](N)[C@H](O)[C@H](C)O1 [DOXORUBICIN]
4T1 [27]
  Activity: 265 mm3
4T1 [28]
  Activity: 50%
[29]
  Activity: 19%
[43]
  Activity: Toxic
[44]
  Activity: Toxic
[45]
  Activity: Toxic
4T1 [36]
  Activity: 82.57%
4T1 [41]
  Activity: Active
4T1 [42]
  Activity: Active

## Cc1ccc(S(=O)(=O)N2CCOC23C=CC(=O)C=C3)cc1
MDA-MB-231 [46]
  IC50: 390 nM
A549 [47]
  IC50: 330 nM
HeLa [48]
  IC50: 710 nM
